From patent US20230272029A1, “CO-AGONISTS AT GLP-1 AND GIP RECEPTORS SUITABLE FOR ORAL DELIVERY” (Novo Nordisk A/S, priority 2020, published 2023)
Marks after values point to notes of the source that are not given here. Starred links: 1 amine or outer side, 2 acyl side, 3 side chain; linkers in the order of their positions; H or OH if unused. Non-standard residues stand in square brackets, D forms with d. Residues, ends and D or L forms follow the SMILES beside them. Groups on a side chain read outwards from the residue. *: point of attachment. C18 diacid = O=C(O)CCCCCCCCCCCCCCCCC(=O)*; γGlu = O=C(O)[C@H](CCC(=O)[*:2])N[*:1]; εLys = N[C@@H](CCCCN[*:1])C(=O)[*:2]; AEEA = NCCOCCOCC(=O)O; Aib = CC(C)(N)C(=O)O

Experiment: Pharmacokinetic study in dogs after oral dosing of tablets with SNAC
Assay type: in vivo, Beagle dogs
Conditions: dog, in vivo, po
Procedure: The purpose of this example is to determine the half-life and plasma exposure in vivo of the compounds of the present invention after p.o. administration to beagle dogs, i.e. the terminal half-life and concentration of test substance that reaches circulation with time. This is done in a pharmacokinetic (PK) study, where these parameters of the compound in question are determined. By terminal half-life is generally meant the period of time it takes to halve a certain plasma concentration, measured after the initial distribution phase.
The amount of SNAC in the tablet composition was 100-300 mg, the amount of magnesium stearate in the tablet composition was 7.7 mg, and the target amount of each test substance in the tablet composition was 3-4 mg.
Male beagle dogs, 1-7 years of age and weighing 9-17 kg during the study period, were included in the study. The dogs were dosed in a fasting state. The dogs were group housed in pens (12 hours light: 12 hours dark), and fed individually and restrictedly once daily with Royal Canin Medium Adult dog food (Royal Canin Products, China Branch, or Brogaarden A/S, Denmark). The dogs were used for repeated PK studies with a suitable wash-out period between successive dosing. An appropriate acclimatization period was given prior to initiation of the first PK study. All handling, dosing, and blood sampling of the animals were performed by trained and skilled staff. Before the studies, the dogs were fasted overnight and from 0 to 4 hours after dosing. The dogs were restricted to water 1 hour before dosing until 4 hours after dosing, but otherwise had ad libitum access to water during the whole period.
The compositions were administered by a single oral dosing to the dogs in groups of 6-8 dogs. […] The mouth was then closed, and 10 mL of tap water was given by syringe or gavage to facilitate swallowing of the tablet.
For each blood sample time point, approximately 0.8 mL of whole blood was collected in a 1.5 mL EDTA-coated tube, which was gently turned to mix the sample with EDTA. Blood samples were collected in EDTA buffer (8 mM) and then centrifuged at 4° C. and 2000g for 10 minutes. Plasma was pipetted into Micronic tubes on dry ice, and kept at −20° C. or lower until analysis. Blood samples were taken as appropriate, for example from a venflon in the cephalic vein in the front leg for the first 2 hours and then with syringe from the jugular vein for the rest of the time points. The first few drops were allowed to drain from the venflon to avoid heparin saline from the venflon in the sample.
All blood samples were collected into test tubes containing EDTA for stabilisation and kept on ice until centrifugation. Plasma was separated from whole blood by centrifugation and the plasma was stored at −20° C. or lower until analysis.
The plasma was analysed for test substance using LC-MS (Liquid Chromatography-Mass Spectrometry) as known to the person skilled in the art. […] RP-HPLC separation was achieved using a linear gradient of 1:1 acetonitrile/methanol in 1% aqueous formic acid using either: a Phenomenex Onyx Monolithic C18 column (50×2.0 mm) and a flow rate of 0.8 mL/min at 30° C.; or an Agilent Poroshell 120 SB-C18 column (50×2.1 mm, 2.7 μm) at a flow rate of 0.4 mL/min at 60° C. The mass spectrometer was operated in either positive ionization SIM mode or positive ionization PRM mode.
For each individual animal, a plasma concentration-time profile was analysed by a non-compartmental model in Pharsight Phoenix WinNonLin ver. 6.4 software or other relevant software for PK analysis, and the resulting terminal half-life (t1/2), maximum plasma concentration per dose (Cmax/D), time for maximum plasma concentration (tmax), and area under the curve to infinity per dose (AUC/D) were determined. Summary statistics of pharmacokinetic results were presented as median (for tmax), harmonic mean ([…]), or arithmetic mean (Cmax, AUC).

Row | Structure (SMILES) | Cmax/Dose | AUC/Dose
1 | CC[C@H](C)[C@H](NC(=O)[C@H](Cc1ccccc1)NC(=O)[C@H](CCC(=O)O)NC(=O)[C@H](CCC(N)=O)NC(=O)[C@H](C)NC(=O)[C@H](C)NC(=O)[C@H](CCC(N)=O)NC(=O)[C@H](CCCCNC(=O)[C@@H](N)CCCCNC(=O)[C@@H](N)CCCCNC(=O)CC[C@H](NC(=O)CCCCCCCCCCCCCCCCC(=O)O)C(=O)O)NC(=O)[C@H](CCC(=O)O)NC(=O)[C@H](CC(C)C)NC(=O)[C@H](CC(C)C)NC(=O)[C@@H](NC(=O)[C@H](CO)NC(=O)[C@H](Cc1ccc(O)cc1)NC(=O)[C@H](CC(=O)O)NC(=O)[C@H](CO)NC(=O)[C@@H](NC(=O)[C@H](Cc1ccccc1)NC(=O)[C@@H](NC(=O)CNC(=O)[C@H](CCC(=O)O)NC(=O)C(C)(C)NC(=O)[C@@H](N)Cc1ccc(O)cc1)[C@@H](C)O)[C@@H](C)O)[C@@H](C)CC)C(=O)N[C@@H](CCC(=O)O)C(=O)N[C@@H](Cc1c[nH]c2ccccc12)C(=O)N[C@@H](CC(C)C)C(=O)N[C@@H](CC(C)C)C(=O)N[C@@H](C)C(=O)NCC(=O)NCC(=O)N1CCC[C@H]1C(=O)N[C@@H](CO)C(=O)N[C@@H](CO)C(=O)NCC(=O)N[C@@H](C)C(=O)N1CCC[C@H]1C(=O)N1CCC[C@H]1C(=O)N1CCC[C@H]1C(=O)N[C@@H](CO)C(=O)O [Compound No. 29] (H-Y[Aib]EGTFTSDYSILLEK([εLys-εLys-γGlu-C18 diacid])QAAQEFIEWLLAGGPSSGAPPPS-OH) | 0.26** kg/L | 
2 | CC[C@H](C)[C@H](NC(=O)[C@H](Cc1ccccc1)NC(=O)[C@H](CCC(=O)O)NC(=O)[C@H](Cc1c[nH]cn1)NC(=O)[C@H](C)NC(=O)[C@H](C)NC(=O)[C@H](CCC(N)=O)NC(=O)[C@H](CCCCNC(=O)[C@@H](N)CCCCNC(=O)[C@@H](N)CCCCNC(=O)CC[C@H](NC(=O)CCCCCCCCCCCCCCCCC(=O)O)C(=O)O)NC(=O)[C@H](CCC(=O)O)NC(=O)[C@H](CC(C)C)NC(=O)[C@H](CC(C)C)NC(=O)[C@@H](NC(=O)[C@H](CO)NC(=O)[C@H](Cc1ccc(O)cc1)NC(=O)[C@H](CC(=O)O)NC(=O)[C@H](CO)NC(=O)[C@@H](NC(=O)[C@H](Cc1ccccc1)NC(=O)[C@@H](NC(=O)CNC(=O)[C@H](CCC(=O)O)NC(=O)C(C)(C)NC(=O)[C@@H](N)Cc1ccc(O)cc1)[C@@H](C)O)[C@@H](C)O)[C@@H](C)CC)C(=O)N[C@@H](CCC(=O)O)C(=O)N[C@@H](Cc1c[nH]c2ccccc12)C(=O)N[C@@H](CC(C)C)C(=O)N[C@@H](CC(C)C)C(=O)N[C@@H](C)C(=O)NCC(=O)NCC(=O)N1CCC[C@H]1C(=O)N[C@@H](CO)C(=O)N[C@@H](CO)C(=O)NCC(=O)N[C@@H](C)C(=O)N1CCC[C@H]1C(=O)N1CCC[C@H]1C(=O)N1CCC[C@H]1C(=O)N[C@@H](CO)C(=O)O [Compound No. 30] (H-Y[Aib]EGTFTSDYSILLEK([εLys-εLys-γGlu-C18 diacid])QAAHEFIEWLLAGGPSSGAPPPS-OH) | 0.24 kg/L | 6.5 kg·h/L
3 | CC[C@H](C)[C@H](NC(=O)[C@H](Cc1ccccc1)NC(=O)[C@H](CCC(=O)O)NC(=O)[C@H](CCCNC(=N)N)NC(=O)[C@H](C)NC(=O)[C@H](C)NC(=O)[C@H](CCC(N)=O)NC(=O)[C@H](CCCCNC(=O)[C@@H](N)CCCCNC(=O)[C@@H](N)CCCCNC(=O)CC[C@H](NC(=O)CCCCCCCCCCCCCCCCC(=O)O)C(=O)O)NC(=O)[C@H](CCC(=O)O)NC(=O)[C@H](CC(C)C)NC(=O)[C@H](CC(C)C)NC(=O)[C@@H](NC(=O)[C@H](CO)NC(=O)[C@H](Cc1ccc(O)cc1)NC(=O)[C@H](CC(=O)O)NC(=O)[C@H](CO)NC(=O)[C@@H](NC(=O)[C@H](Cc1ccccc1)NC(=O)[C@@H](NC(=O)CNC(=O)[C@H](CCC(=O)O)NC(=O)C(C)(C)NC(=O)[C@@H](N)Cc1ccc(O)cc1)[C@@H](C)O)[C@@H](C)O)[C@@H](C)CC)C(=O)N[C@@H](CCC(=O)O)C(=O)N[C@@H](Cc1c[nH]c2ccccc12)C(=O)N[C@@H](CC(C)C)C(=O)N[C@@H](CC(C)C)C(=O)N[C@@H](C)C(=O)NCC(=O)NCC(=O)N1CCC[C@H]1C(=O)N[C@@H](CO)C(=O)N[C@@H](CO)C(=O)NCC(=O)N[C@@H](C)C(=O)N1CCC[C@H]1C(=O)N1CCC[C@H]1C(=O)N1CCC[C@H]1C(=O)N[C@@H](CO)C(=O)O [Compound No. 31] (H-Y[Aib]EGTFTSDYSILLEK([εLys-εLys-γGlu-C18 diacid])QAAREFIEWLLAGGPSSGAPPPS-OH) | 0.35** kg/L | 
4 | CC[C@H](C)[C@H](NC(=O)[C@H](Cc1ccccc1)NC(=O)[C@H](CCC(=O)O)NC(=O)[C@H](CCCNC(=N)N)NC(=O)[C@H](C)NC(=O)[C@H](C)NC(=O)[C@H](CCC(N)=O)NC(=O)[C@H](CCCCNC(=O)COCCOCCNC(=O)COCCOCCNC(=O)CC[C@H](NC(=O)CCCCCCCCCCCCCCCCC(=O)O)C(=O)O)NC(=O)[C@H](CCC(=O)O)NC(=O)[C@H](CC(C)C)NC(=O)[C@H](CC(C)C)NC(=O)[C@@H](NC(=O)[C@H](CO)NC(=O)[C@H](Cc1ccc(O)cc1)NC(=O)[C@H](CC(=O)O)NC(=O)[C@H](CO)NC(=O)[C@@H](NC(=O)[C@H](Cc1ccccc1)NC(=O)[C@@H](NC(=O)CNC(=O)[C@H](CCC(=O)O)NC(=O)C(C)(C)NC(=O)[C@@H](N)Cc1ccc(O)cc1)[C@@H](C)O)[C@@H](C)O)[C@@H](C)CC)C(=O)N[C@@H](CCC(=O)O)C(=O)N[C@@H](Cc1c[nH]c2ccccc12)C(=O)N[C@@H](CC(C)C)C(=O)N[C@@H](CC(C)C)C(=O)N[C@@H](C)C(=O)NCC(=O)NCC(=O)N1CCC[C@H]1C(=O)N[C@@H](CO)C(=O)N[C@@H](CO)C(=O)NCC(=O)N[C@@H](C)C(=O)N1CCC[C@H]1C(=O)N1CCC[C@H]1C(=O)N1CCC[C@H]1C(=O)N[C@@H](CO)C(=O)O [Compound No. 32] (H-Y[Aib]EGTFTSDYSILLEK([AEEA-AEEA-γGlu-C18 diacid])QAAREFIEWLLAGGPSSGAPPPS-OH) | 0.45* kg/L | 
5 | CC[C@H](C)[C@H](NC(=O)[C@H](Cc1ccccc1)NC(=O)[C@H](CCC(=O)O)NC(=O)[C@H](CCCNC(=N)N)NC(=O)[C@H](C)NC(=O)[C@H](C)NC(=O)[C@H](CCC(N)=O)NC(=O)[C@H](CCC(=O)O)NC(=O)[C@H](CCC(=O)O)NC(=O)[C@H](CC(C)C)NC(=O)[C@H](CC(C)C)NC(=O)[C@H](CCCCNC(=O)[C@@H](N)CCCCNC(=O)[C@@H](N)CCCCNC(=O)CC[C@H](NC(=O)CCCCCCCCCCCCCCCCC(=O)O)C(=O)O)NC(=O)[C@H](CO)NC(=O)[C@H](Cc1ccc(O)cc1)NC(=O)[C@H](CC(=O)O)NC(=O)[C@H](CO)NC(=O)[C@@H](NC(=O)[C@H](Cc1ccccc1)NC(=O)[C@@H](NC(=O)CNC(=O)[C@H](CCC(=O)O)NC(=O)C(C)(C)NC(=O)[C@@H](N)Cc1ccc(O)cc1)[C@@H](C)O)[C@@H](C)O)C(=O)N[C@@H](CCC(=O)O)C(=O)N[C@@H](Cc1c[nH]c2ccccc12)C(=O)N[C@@H](CC(C)C)C(=O)N[C@@H](CC(C)C)C(=O)N[C@@H](C)C(=O)NCC(=O)NCC(=O)N1CCC[C@H]1C(=O)N[C@@H](CO)C(=O)N[C@@H](CO)C(=O)NCC(=O)N[C@@H](C)C(=O)N1CCC[C@H]1C(=O)N1CCC[C@H]1C(=O)N1CCC[C@H]1C(=O)N[C@@H](CO)C(=O)O [Compound No. 40] | 0.48 kg/L | 27.0 kg·h/L
